Assays:
Type in all cases: in vivo
Parameters in all cases: key: 1=total damage; 9=no action; Ratings of from 1 to 4 (especially from 1 to 3) indicate good to very good herbicidal action
Setaria [1] = assay: Pre-emergence herbicidal action (Example B1); conditions: 2000 g a.i./ha, sprayed immediately after sowing, evaluated after 3 weeks, scale of nine ratings
Method: (§1) Monocotyledonous and dicotyledonous test plants are sown in standard soil in plastics pots. Immediately after sowing, the test compounds, each in the form of an aqueous suspension or emulsion prepared from a 25% emulsifiable concentrate (Example F1, c) in WO 97/34485, pages 9 and 10), are applied by spraying at a rate of application of 2000 g of active ingredient/ha (500 liters water/ha). The test plants are then grown in a greenhouse under optimum conditions. After 3 weeks' test duration, the test is evaluated in accordance with a scale of nine ratings (1=total damage, 9=no action). Ratings of from 1 to 4 (especially from 1 to 3) indicate good to very good herbicidal action.
(§2) Test plants: Avena, Setaria, Sinapis, Stellaria

Sinapis [2] = assay: Pre-emergence herbicidal action (Example B1); conditions: 2000 g a.i./ha, sprayed immediately after sowing, evaluated after 3 weeks, scale of nine ratings
Method: as §1, §2

Avena [3] = assay: Pre-emergence herbicidal action (Example B1); conditions: 2000 g a.i./ha, sprayed immediately after sowing, evaluated after 3 weeks, scale of nine ratings
Method: as §1, §2

Stellaria [4] = assay: Pre-emergence herbicidal action (Example B1); conditions: 2000 g a.i./ha, sprayed immediately after sowing, evaluated after 3 weeks, scale of nine ratings
Method: as §1, §2

Setaria [5] = assay: Post-emergence herbicidal action (Example B2); conditions: 2000 g a.i./ha, sprayed at 4- to 6-leaf stage, evaluated after approximately 18 days, scale of nine ratings
Method: (§3) Monocotyledonous and dicotyledonous test plants are grown in a greenhouse in plastics pots containing standard soil and at the 4- to 6-leaf stage are sprayed with an aqueous suspension or emulsion of the test substances of formula I, prepared from a 25% emulsifiable concentrate (Example F1, c) in WO 97/34485, pages 9 and 10), at a rate of application corresponding to 2000 g of active ingredient/ha (500 liters water/ha). The test plants are then grown on in the greenhouse under optimum conditions. After approximately 18 days' test duration, the test is evaluated in accordance with a scale of nine ratings (1=total damage, 9=no action). Ratings of from 1 to 4 (especially from 1 to 3) indicate good to very good herbicidal action.
as §2

Sinapis [6] = assay: Post-emergence herbicidal action (Example B2); conditions: 2000 g a.i./ha, sprayed at 4- to 6-leaf stage, evaluated after approximately 18 days, scale of nine ratings
Method: as §3, §2

Avena [7] = assay: Post-emergence herbicidal action (Example B2); conditions: 2000 g a.i./ha, sprayed at 4- to 6-leaf stage, evaluated after approximately 18 days, scale of nine ratings
Method: as §3, §2

Stellaria [8] = assay: Post-emergence herbicidal action (Example B2); conditions: 2000 g a.i./ha, sprayed at 4- to 6-leaf stage, evaluated after approximately 18 days, scale of nine ratings
Method: as §3, §2

SMILES	Pre-emergence action: Setaria (rating) (Setaria [1])	Pre-emergence action: Sinapis (rating) (Sinapis [2])	Pre-emergence action: Avena (rating) (Avena [3])	Pre-emergence action: Stellaria (rating) (Stellaria [4])	Post-emergence action: Setaria (rating) (Setaria [5])	Post-emergence action: Sinapis (rating) (Sinapis [6])	Post-emergence action: Avena (rating) (Avena [7])	Post-emergence action: Stellaria (rating) (Stellaria [8])
Cn1nc(-c2c(F)cc(Cl)c(=O)n2CCc2ccccc2)c(Cl)c1OC(F)F [Example 1.105]	1	1	1	1	2	1	1	1
CSCn1c(-c2nn(C)c(OC(F)F)c2Cl)c(F)cc(Cl)c1=O [Example 1.147]	1	1	1	1	1	1	1	1
Cn1nc(-c2c(F)cc(Cl)c(=O)n2C)c(Cl)c1OC(F)F [Example 1.002]	1	1	1	1	1	1	1	1
C#CCn1c(-c2nn(CC)c(OC(F)F)c2Cl)c(F)cc(Cl)c1=O [Example 7.100]	1	1	1	1	1	1	1	1
C#CCn1c(-c2nn(C)c(C(F)(F)F)c2Cl)c(F)cc(Cl)c1=O [Example 9.100]	1	1	1	1	2	1	2	1
Cn1nc(-c2c(Cl)cc(Cl)c(=O)n2CS(C)(=O)=O)c(Cl)c1OC(F)F [Example 1.152]	1	1	1	1	1	1	1	1
CCSCCn1c(-c2nn(C)c(OC(F)F)c2Cl)c(F)cc(Cl)c1=O [Example 1.156]	1	1	1	1	1	1	1	1
Cn1nc(-c2ccc(Cl)c(=O)n2C)c(Cl)c1OC(F)F [Example 1.001]	1	1	1	1	1	1	1	1
Cn1nc(-c2c(F)cc(Cl)c(=O)n2C[S+](C)[O-])c(Cl)c1OC(F)F (stereo not drawn) [Example 1.150]	1	1	1	1	1	1	1	1
Cn1nc(-c2c(F)cc(Cl)c(=O)n2CS(C)(=O)=O)c(Cl)c1OC(F)F [Example 1.153]	1	1	1	1	1	1	1	1
Cn1nc(-c2c(Cl)cc(Cl)c(=O)n2C)c(Cl)c1OC(F)F [Example 1.003]	1	1	1	1	1	1	1	1
CCCCn1c(-c2nn(C)c(OC(F)F)c2Cl)c(F)cc(Cl)c1=O [Example 1.010]	1	1	1	1	1	1	1	1
Cn1nc(-c2c(F)cc(Cl)c(=O)n2CC(=O)OCc2ccccc2)c(Cl)c1OC(F)F [Example 1.195]	1	1	3	1	1	1	1	1
COn1c(-c2nn(C)c(OC(F)F)c2Cl)c(F)cc(Cl)c1=O [Example 1.400]	1	1	1	1	2	1	1	1
CCn1c(-c2nn(C)c(OC(F)F)c2Cl)c(F)cc(Cl)c1=O [Example 1.004]	1	1	1	1	2	1	1	1
